The source of these data is publication PMC8123651, “Flavones from Combretum quadrangulare Growing in Vietnam and Their Alpha-Glucosidase Inhibitory Activity” (Molecules, 2021).

In general, IC50 refers to the concentration that gives 50% inhibition. As usually defined, the zone of inhibition is the size of the clear area around the sample on an inoculated plate.

The target in assay [1] is T1, alpha-glucosidase (Saccharomyces cerevisiae, UniProt P53341). Nature of the assay: Inhibitory type assay on alpha-glucosidase (Lineweaver–Burk plots). It counts as biochemical. The note with it: Vmax decreased while Km remained constant. The procedure:
In order to examine the inhibition mechanism of compound 11, their activity was measured at the different concentration of pNPG.
Enzyme inhibition due to various concentrations of the 8 and 11 compounds were evaluated by monitoring the effects of different concentrations of the substrate. For Lineweaver–Burk double reciprocal plots 1/enzyme velocity (1/V) vs. 1/substrate concentration (1/[S]), the inhibition type was determined using various concentrations of pNPG (1 mM, 2 mM, and 4 mM) as a substrate in the presence of different concentrations of the test compounds (0; 4.96; 9.92 and 19.84 µM for 8 and 0; […]; 43.03 and 86.06 µM for 11). The experiments were carried out in 3 replicates. The mixtures were incubated at 37 °C and the optical density was measured at 405 nm every 1 min for 30 min with the Clariostar Labtech microplate reader (Ortenberg, Germany). Optimal concentrations of the tested compound were chosen based on the IC50 value. The inhibition constants were obtained graphically from secondary plots (Microsoft Excel 2010, Washington, WA, USA).

Assay [2] concerns the target T1, alpha-glucosidase. The assay can be described thus: Alpha-glucosidase inhibition assay (pNPG substrate). It counts as biochemical. The note with it: means ± standard errors of three independent experiments; read-out: Alpha-glucosidase inhibitory IC50. On the procedure: The alpha-glucosidase (0.2 U/mL) and substrate (5.0 mM p-nitrophenyl-α-D-glucopyranoside) were dissolveed in 100 mM of pH 6.9 sodium phosphate buffer. The inhibitor (50 µL) was preincubated with alpha-glucosidase at 37 °C for 20 min, and then the substrate (40 µL) was added to the reaction mixture. The enzymatic reaction was carried out at 37 °C for 20 min and stopped by adding 0.2 M of Na2CO3 (130 μL). Enzymatic activity was quantified by measuring absorbance at 405 nm. All samples were analyzed in triplicate at five different concentrations around the IC50 values, and the mean values were retained. The inhibition percentage (%) was calculated by the following equation: Inhibition (%)=[1−(Asample/Acontrol)]×100. .

The subject of assay [3] is methicillin-resistant Staphylococcus aureus (MRSA). Nature of the assay: Antibacterial activity, agar well diffusion method. It counts as cell-based. The settings on record: 50 μg of each compound per well, 8-mm wells, read-out: Diameter of inhibition zone. On the procedure: Methicillin-resistant Staphylococcus aureus (MRSA), extended spectrum beta-lactamase-producing Escherichia coli (ESBL-producing E. coli) and the agar well diffusion method were used to evaluate the antibacterial activity of the isolated compounds [29]. The strains were cultured in nutrient broth at 37 °C for 18 h and diluted with steriled 0.9% NaCl to obtain the 1.5 × 10^8 CFU/mL bacterial solution. Then, 100 μL of the bacterial solution was spread on Mueller–Hinton agar (MHA) plate on which 8-mm wells were created aseptically with tips. The isolated compounds were dissolved in dimethyl sulfoxide at the concentration of 1 mg/mL and 50 μL of each compound solution was applied in each well. The plates were incubated at 37 °C for 16–18 h and the diameters of the inhibtion zones were measured. Dimethyl sulfoxide and apramycin were used as controls in this experiment.
For orientation: Agar diffusion results depend on both activity and mobility in agar.

T1 sequence (P53341 whole entry): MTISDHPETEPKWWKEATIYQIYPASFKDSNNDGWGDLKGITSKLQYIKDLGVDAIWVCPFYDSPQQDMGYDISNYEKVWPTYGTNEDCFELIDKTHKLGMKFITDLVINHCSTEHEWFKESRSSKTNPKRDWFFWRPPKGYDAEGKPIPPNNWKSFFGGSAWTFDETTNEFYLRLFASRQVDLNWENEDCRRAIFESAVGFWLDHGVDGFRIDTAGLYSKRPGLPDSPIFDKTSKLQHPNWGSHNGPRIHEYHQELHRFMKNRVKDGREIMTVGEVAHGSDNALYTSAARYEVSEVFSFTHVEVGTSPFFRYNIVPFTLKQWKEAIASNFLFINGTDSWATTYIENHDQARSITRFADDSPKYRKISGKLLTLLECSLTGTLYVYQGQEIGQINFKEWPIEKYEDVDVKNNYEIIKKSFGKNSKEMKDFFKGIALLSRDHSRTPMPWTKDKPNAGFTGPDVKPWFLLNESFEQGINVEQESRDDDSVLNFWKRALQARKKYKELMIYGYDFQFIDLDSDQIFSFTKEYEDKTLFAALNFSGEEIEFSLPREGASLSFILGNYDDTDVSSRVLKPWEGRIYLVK

`COc1c(Br)c(O)c2c(=O)c(OC)c(-c3cc(Br)c(O)c(Br)c3)oc2c1Br` [Compound 11, 6,8,3′,5′-Tetrabromokamatakenin]: in assay [1], the Inhibition type result is given as “noncompetitive”. Take isoorientin [Compound 15]: in assay [2], the half-inhibitory concentration (IC50) was greater than 300 µM.

Regarding `CN[C@@H]1[C@@H](O[C@H]2O[C@H](CO)[C@@H](N)[C@H](O)[C@H]2O)OC2C[C@@H](N)[C@@H](O[C@H]3[C@H](O)[C@@H](O)[C@H](N)C[C@@H]3N)OC2[C@@H]1O` (stereo partly drawn) [apramycin, reference compound], the zone of inhibition at 50 µg/disc in assay [3] is 24 mm. As for `COc1cc(O)c2c(=O)c(O)c(-c3ccc(OC)c(O)c3)oc2c1` [Compound 5, ombuin], the zone of inhibition at 50 µg/disc in assay [3] was 15 mm.

Take vitexin [Compound 16]: in assay [2], the concentration for half-maximal inhibition (IC50) was greater than 300 µM. As to `COc1c(O)cc(-c2oc3c(Br)c(OC)c(Br)c(O)c3c(=O)c2OC)cc1Br` [Compound 8, 6,8,5′-Tribromoayanin], the Inhibition type entry in assay [1] was “noncompetitive”.
